Measurements from ChEMBL document CHEMBL6071189, “Exploring the 1-(4-Nitrophenyl)-3-arylprop-2-en-1-one Scaffold for the Selective Inhibition of Monoamine Oxidase B” (ACS Med Chem Lett, 2024).

How the values were obtained:
[1] = target: T1, Amine oxidase [flavin-containing] A (Homo sapiens, UniProt P21397); experiment: Inhibition of recombinant human MAO-A using tyramine hydrochloride as substrate preincubated for 5 mins followed by substrate addition and measured after 5 mins in presence of horse radish peroxidase by Ampliflu Red based fluorescence microplate reader
T1 sequence (P21397 whole entry): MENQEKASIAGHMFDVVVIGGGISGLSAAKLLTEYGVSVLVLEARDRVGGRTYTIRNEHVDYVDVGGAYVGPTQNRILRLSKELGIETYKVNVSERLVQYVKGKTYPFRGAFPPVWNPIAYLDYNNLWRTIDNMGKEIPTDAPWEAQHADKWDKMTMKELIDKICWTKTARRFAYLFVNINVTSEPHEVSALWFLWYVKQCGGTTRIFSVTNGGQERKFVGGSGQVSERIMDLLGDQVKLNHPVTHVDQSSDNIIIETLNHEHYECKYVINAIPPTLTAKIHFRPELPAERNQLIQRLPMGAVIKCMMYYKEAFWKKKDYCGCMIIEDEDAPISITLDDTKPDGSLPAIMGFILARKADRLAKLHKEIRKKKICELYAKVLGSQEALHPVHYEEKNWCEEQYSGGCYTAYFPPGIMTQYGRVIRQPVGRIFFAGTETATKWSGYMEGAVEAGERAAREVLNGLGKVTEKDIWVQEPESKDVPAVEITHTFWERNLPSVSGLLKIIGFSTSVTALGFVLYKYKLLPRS

[2] = target: T2, Amine oxidase [flavin-containing] B (Homo sapiens, UniProt P27338); experiment: Inhibition of recombinant human MAO-B using tyramine hydrochloride as substrate preincubated for 5 mins followed by substrate addition and measured after 5 mins in presence of horse radish peroxidase by Ampliflu Red based fluorescence microplate reader
T2 sequence (P27338 whole entry): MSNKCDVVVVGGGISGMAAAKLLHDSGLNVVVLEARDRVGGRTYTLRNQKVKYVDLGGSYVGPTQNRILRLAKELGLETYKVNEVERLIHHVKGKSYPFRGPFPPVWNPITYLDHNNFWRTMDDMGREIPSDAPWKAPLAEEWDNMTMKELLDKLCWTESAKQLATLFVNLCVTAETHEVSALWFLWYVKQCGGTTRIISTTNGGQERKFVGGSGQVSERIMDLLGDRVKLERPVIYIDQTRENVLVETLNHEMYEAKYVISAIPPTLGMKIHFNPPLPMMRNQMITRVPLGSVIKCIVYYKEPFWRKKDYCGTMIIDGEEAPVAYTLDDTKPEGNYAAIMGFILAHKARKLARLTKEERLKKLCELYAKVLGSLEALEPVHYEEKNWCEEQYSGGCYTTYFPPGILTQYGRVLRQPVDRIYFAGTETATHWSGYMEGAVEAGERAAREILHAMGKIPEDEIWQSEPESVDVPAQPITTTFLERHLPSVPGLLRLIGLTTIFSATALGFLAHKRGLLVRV

Homo sapiens = organism: Homo sapiens; experiment: Selectivity index, ratio of IC50 for inhibition of recombinant human MAO-A to IC50 for inhibition of recombinant human MAO-B

SMILES | IC50 [1] | IC50 [2] | Ratio IC50 (Homo sapiens)
O=C(/C=C/c1ccc(Cl)cc1)c1ccc([N+](=O)[O-])cc1 | 52000 nM | 10 nM | 5200
O=C(/C=C/c1ccc(F)cc1)c1ccc([N+](=O)[O-])cc1 | 7800 nM | 48 nM | 160
O=C(/C=C/c1ccc2ccccc2c1)c1ccc([N+](=O)[O-])cc1 | 13000 nM | 21 nM | 620
O=C(/C=C/c1ccc(Cl)c(Cl)c1)c1ccc([N+](=O)[O-])cc1 | 59000 nM | 2.2 nM | 27000
COc1ccc(/C=C/C(=O)c2ccc([N+](=O)[O-])cc2)cc1 | 27000 nM | 93 nM | 290
Cc1ccc(/C=C/C(=O)c2ccc([N+](=O)[O-])cc2)cc1 | 2700 nM | 13 nM | 210
Cc1ccccc1/C=C/C(=O)c1ccc([N+](=O)[O-])cc1 | 89000 nM | 120 nM | 740
